Measurements reported in PubChem BioAssay (NCI).
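Grown in 96-well plates, cells were treated for 48 hours with each compound at five concentrations. Insufficient inhibition: endpoint recorded as highest concentration tested. TGI is the concentration that stops growth completely.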

Key:
Assay in all cases: NCI-60 cell line screen, 48 h
[1] = tested on: 786-0 renal
[2] = tested on: A498 renal
[3] = tested on: A549 NSCLC
[4] = tested on: ACHN renal
[5] = tested on: BT-549 breast
[6] = tested on: CAKI-1 renal
[7] = tested on: CCRF-CEM leukemia
[8] = tested on: COLO 205 colon
[9] = tested on: DU-145 prostate
[10] = tested on: EKVX NSCLC
[11] = tested on: HCC-2998 colon
[12] = tested on: HCT-116 colon
[13] = tested on: HCT-15 colon
[14] = tested on: HL-60(TB) leukemia
[15] = tested on: HOP-62 NSCLC
[16] = tested on: HOP-92 NSCLC
[17] = tested on: HS 578T breast
[18] = tested on: HT29 colon
[19] = tested on: IGROV1 ovarian
[20] = tested on: K-562 leukemia
[21] = tested on: KM12 colon
[22] = tested on: LOX IMVI melanoma
[23] = tested on: M14 melanoma
[24] = tested on: MALME-3M melanoma
[25] = tested on: MCF7 breast
[26] = tested on: MDA-MB-231 breast
[27] = tested on: MDA-MB-435
[28] = tested on: MOLT-4 leukemia
[29] = tested on: NCI-H226 lung
[30] = tested on: NCI-H23 lung
[31] = tested on: NCI-H460 lung
[32] = tested on: NCI-H522 lung
[33] = tested on: NCI/ADR-RES ovarian
[34] = tested on: OVCAR-3 ovarian
[35] = tested on: OVCAR-4 ovarian
[36] = tested on: OVCAR-5 ovarian
[37] = tested on: OVCAR-8 ovarian
[38] = tested on: PC-3 prostate
[39] = tested on: RPMI-8226 leukemia
[40] = tested on: RXF 393 renal
[41] = tested on: SF-268 CNS
[42] = tested on: SF-295 CNS
[43] = tested on: SF-539 CNS
[44] = tested on: SK-MEL-2 melanoma
[45] = tested on: SK-MEL-28 melanoma
[46] = tested on: SK-MEL-5 melanoma
[47] = tested on: SK-OV-3 ovarian
[48] = tested on: SN12C renal
[49] = tested on: SNB-19 CNS
[50] = tested on: SNB-75 CNS
[51] = tested on: SR leukemia
[52] = tested on: SW-620 colon
[53] = tested on: T-47D breast
[54] = tested on: TK-10 renal
[55] = tested on: U251 CNS
[56] = tested on: UACC-257 melanoma
[57] = tested on: UACC-62 melanoma
[58] = tested on: UO-31 renal
[59] = tested on: MDA-N

SMILES: O=c1[nH]c2cc([N+](=O)[O-])c(Nc3c4ccccc4nc4ccccc34)c([N+](=O)[O-])c2[nH]1
- TGI [1]: 17.6 µM
- TGI [2]: 6.86 µM
- TGI [3]: 12.3 µM
- TGI [4]: 16.7 µM
- TGI [5]: 23 µM
- TGI [6]: 7.96 µM
- TGI [7]: 24.3 µM
- TGI [8]: 6.97 µM
- TGI [9]: 8.82 µM
- TGI [10]: 7.47 µM
- TGI [11]: 5.75 µM
- TGI [12]: 7.39 µM
- TGI [13]: 14.4 µM
- TGI [14]: 9.39 µM
- TGI [15]: 11.6 µM
- TGI [16]: 18.5 µM
- TGI [17]: > 28.9 µM
- TGI [18]: 9.33 µM
- TGI [19]: 3.04 µM
- TGI [20]: 6.96 µM
- TGI [21]: 10.9 µM
- TGI [22]: 7.02 µM
- TGI [23]: 5.14 µM
- TGI [24]: 5.09 µM
- TGI [25]: 8.36 µM
- TGI [26]: 17.5 µM
- TGI [27]: 8.62 µM
- TGI [28]: 5.02 µM
- TGI [29]: 15 µM
- TGI [30]: 16 µM
- TGI [31]: 7.75 µM
- TGI [32]: 3.63 µM
- TGI [33]: 10.9 µM
- TGI [34]: 9.33 µM
- TGI [35]: 13.9 µM
- TGI [36]: 7.08 µM
- TGI [37]: 16.3 µM
- TGI [38]: 15.2 µM
- TGI [39]: 8.25 µM
- TGI [40]: 10.1 µM
- TGI [41]: 10.5 µM
- TGI [42]: 11.2 µM
- TGI [43]: 13.7 µM
- TGI [44]: 8.6 µM
- TGI [45]: 12.9 µM
- TGI [46]: 7.65 µM
- TGI [47]: 24.7 µM
- TGI [48]: 9.1 µM
- TGI [49]: 26.7 µM
- TGI [50]: 13.5 µM
- TGI [51]: 4.36 µM
- TGI [52]: 14.7 µM
- TGI [53]: 8.83 µM
- TGI [54]: 6.85 µM
- TGI [55]: 22.6 µM
- TGI [56]: 11.2 µM
- TGI [57]: 4.53 µM
- TGI [58]: 5.98 µM

SMILES: COc1cc2cc(C(=O)N3CC(CCl)c4c3cc(NC(=O)C(C)Nc3c([N+](=O)[O-])cc(C(=O)NCCN(C)C)cc3[N+](=O)[O-])c3ccccc43)[nH]c2c(OC)c1OC (centres undefined)
- TGI [1]: 0.235 µM
- TGI [2]: 0.992 µM
- TGI [3]: 0.362 µM
- TGI [5]: 0.649 µM
- TGI [8]: 0.192 µM
- TGI [9]: 1.03 µM
- TGI [10]: 1.01 µM
- TGI [11]: 0.16 µM
- TGI [12]: 0.572 µM
- TGI [13]: 2.5 µM
- TGI [15]: 0.283 µM
- TGI [16]: 0.0297 µM
- TGI [18]: 0.419 µM
- TGI [21]: 0.457 µM
- TGI [23]: 0.374 µM
- TGI [24]: 0.27 µM
- TGI [25]: 0.127 µM
- TGI [26]: 0.342 µM
- TGI [27]: 0.356 µM
- TGI [59]: 0.371 µM
- TGI [29]: 0.34 µM
- TGI [31]: 0.178 µM
- TGI [32]: 0.279 µM
- TGI [34]: 0.433 µM
- TGI [35]: 0.551 µM
- TGI [36]: 0.544 µM
- TGI [38]: 1.16 µM
- TGI [44]: 0.159 µM
- TGI [46]: 0.232 µM
- TGI [47]: 2.23 µM
- TGI [48]: 0.643 µM
- TGI [49]: 0.909 µM
- TGI [52]: 0.285 µM
- TGI [54]: 1.44 µM
- TGI [56]: 0.359 µM
- TGI [58]: 3.35 µM
